Data published in US10323036B2 (Nimbus Lakshmi, Inc., priority 2016, dated 2019).

Target: human TYK2 (JH2domain-pseudokinase) (Homo sapiens (Human), UniProt P29597)
Test: TYK2 JH2 Domain Binding Assay (KINOMEscan)
Conditions: Table 4, JH2 binding assay; read-out: JH2 Kd

Sequence of human TYK2 (JH2domain-pseudokinase) (P29597 556-888): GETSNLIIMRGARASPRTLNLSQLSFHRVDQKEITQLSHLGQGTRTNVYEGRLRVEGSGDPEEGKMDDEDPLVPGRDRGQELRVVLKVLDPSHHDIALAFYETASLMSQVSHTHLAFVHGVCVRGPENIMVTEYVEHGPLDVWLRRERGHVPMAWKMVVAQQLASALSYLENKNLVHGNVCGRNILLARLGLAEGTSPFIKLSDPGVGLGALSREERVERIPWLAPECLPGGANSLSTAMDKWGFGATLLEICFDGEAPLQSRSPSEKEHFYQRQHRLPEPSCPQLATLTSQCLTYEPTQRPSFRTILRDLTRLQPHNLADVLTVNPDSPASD

SMILES	Kd [nM]
COc1c(Nc2cc(NC(=O)C3CC3)nc3[nH]n(C)c(=O)c23)cccc1-c1cnn(C)c1 [Compound I-55, N-(4-((2-methoxy-3-(1-methyl-1H-pyrazol-4-yl)phenyl)amino)-2-methyl-3-oxo-2,3-dihydro-1H-pyrazolo[3,4-b]pyridin-6-yl)cyclopropanecarboxamide]	0.5 to 1
COc1c(Nc2cc(NC(=O)C3CC3)nc3[nH]n(C)c(=O)c23)cccc1-n1cccn1 [Compound I-56, N-(4-((2-methoxy-3-(1H-pyrazol-1-yl)phenyl)amino)-2-methyl-3-oxo-2,3-dihydro-1H-pyrazolo[3,4-b]pyridin-6-yl)cyclopropanecarboxamide]	0.5 to 1
COc1c(Nc2cc(NC(=O)C3CC3)nc3[nH]n(C)c(=O)c23)cccc1-c1ccn(C)n1 [Compound I-57]	< 0.1
COc1c(Nc2cc(Nc3ccc(N4CCCC4)cn3)nc3[nH]n(C)c(=O)c23)cccc1-c1nnn(C)n1 [Compound I-58, 4-((2-methoxy-3-(2-methyl-2H-tetrazol-5-yl)phenyl)amino)-2-methyl-6-((5-(pyrrolidin-1-yl)pyridin-2-yl)amino)-1,2-dihydro-3H-pyrazolo[3,4-b]pyridin-3-one]	> 10
COc1c(Nc2cc(Nc3ccc(C4CC4)cn3)nc3[nH]n(C)c(=O)c23)cccc1-c1nnn(C)n1 [Compound I-59, 6-((5-cyclopropylpyridin-2-yl)amino)-4-((2-methoxy-3-(2-methyl-2H-tetrazol-5-yl)phenyl)amino)-2-methyl-1,2-dihydro-3H-pyrazolo[3,4-b]pyridin-3-one]	0.1 to 0.5
COc1ccccc1Nc1cc(NC(=O)C2CC2)nc2[nH]n(C)c(=O)c12 [Compound I-61, N-(4-((2-methoxyphenyl)amino)-2-methyl-3-oxo-2,3-dihydro-1H-pyrazolo[3,4-b]pyridin-6-yl)cyclopropanecarboxamide]	1 to 10
COc1c(Nc2cc(NC(=O)C3CC3)nc3[nH]n(C)c(=O)c23)cccc1-c1n[nH]c(C)n1 [Compound I-62]	< 0.1
COc1c(Nc2cc(Nc3cncc(C#N)n3)nc3[nH]n(C)c(=O)c23)cccc1-c1nnn(C)n1 [Compound I-64, 6-((4-((2-methoxy-3-(2-methyl-2H-tetrazol-5-yl)phenyl)amino)-2-methyl-3-oxo-2,3-dihydro-1H-pyrazolo[3,4-b]pyridin-6-yl)amino)pyrazine-2-carbonitrile]	< 0.1
COCc1ccc(Nc2cc(Nc3cccc(C(F)(F)F)n3)nc3[nH]n(C)c(=O)c23)c(OC)c1 [Compound I-67, 4-((2-methoxy-4-(methoxymethyl)phenyl)amino)-2-methyl-6-((6-(trifluoromethyl)pyridin-2-yl)amino)-1,2-dihydro-3H-pyrazolo[3,4-b]pyridin-3-one]	1 to 10
COCc1ccc(Nc2cc(Nc3cccc(C#N)n3)nc3[nH]n(C)c(=O)c23)c(OC)c1 [Compound I-68, 6-((4-((2-methoxy-4-(methoxymethyl)phenyl)amino)-2-methyl-3-oxo-2,3-dihydro-1H-pyrazolo[3,4-b]pyridin-6-yl)amino)picolinonitrile]	0.1 to 0.5
COc1cc(C(=O)N2CCCC2)ccc1Nc1cc(NC(=O)C2CC2)nc2[nH]n(C)c(=O)c12 [Compound I-70, N-(4-((2-methoxy-4-(pyrrolidine-1-carbonyl)phenyl)amino)-2-methyl-3-oxo-2,3-dihydro-1H-pyrazolo[3,4-b]pyridin-6-yl)cyclopropanecarboxamide]	0.1 to 0.5
COc1cc(C(=O)N2CCOCC2)ccc1Nc1cc(NC(=O)C2CC2)nc2[nH]n(C)c(=O)c12 [Compound I-71, N-(4-((2-methoxy-4-(morpholine-4-carbonyl)phenyl)amino)-2-methyl-3-oxo-2,3-dihydro-1H-pyrazolo[3,4-b]pyridin-6-yl)cyclopropanecarboxamide]	0.5 to 1
COc1cc(C(=O)N2CCC2)ccc1Nc1cc(NC(=O)C2CC2)nc2[nH]n(C)c(=O)c12 [Compound I-82, N-(4-((4-(azetidine-1-carbonyl)-2-methoxyphenyl)amino)-2-methyl-3-oxo-2,3-dihydro-1H-pyrazolo[3,4-b]pyridin-6-yl)cyclopropanecarboxamide]	0.1 to 0.5

Continued, values first:

Kd [nM]	SMILES
0.1 to 0.5	COc1c(Nc2cc(Nc3cccc(C(F)(F)F)n3)nc3[nH]n(C)c(=O)c23)cccc1-c1nnn(C)n1 [Compound I-60, 4-((2-methoxy-3-(2-methyl-2H-tetrazol-5-yl)phenyl)amino)-2-methyl-6-((6-(trifluoromethyl)pyridin-2-yl)amino)-1,2-dihydro-3H-pyrazolo[3,4-b]pyridin-3-one]
0.1 to 0.5	COc1c(Nc2cc(Nc3cccc(N4CC(OC)C4)n3)nc3[nH]n(C)c(=O)c23)cccc1-c1nnn(C)n1 [Compound I-63, 4-((2-methoxy-3-(2-methyl-2H-tetrazol-5-yl)phenyl)amino)-6-((6-(3-methoxyazetidin-1-yl)pyridin-2-yl)amino)-2-methyl-1,2-dihydro-3H-pyrazolo[3,4-b]pyridin-3-one]
0.1 to 0.5	COc1c(Nc2cc(Nc3cccc(C4CC4)n3)nc3[nH]n(C)c(=O)c23)cccc1-c1nnn(C)n1 [Compound I-65, 6-((6-cyclopropylpyridin-2-yl)amino)-4-((2-methoxy-3-(2-methyl-2H-tetrazol-5-yl)phenyl)amino)-2-methyl-1,2-dihydro-3H-pyrazolo[3,4-b]pyridin-3-one]
0.5 to 1	CCNC(=O)c1cccc(Nc2cc(Nc3cccc(-c4nnn(C)n4)c3OC)c3c(=O)n(C)[nH]c3n2)n1 [Compound I-66, N-ethyl-6-((4-((2-methoxy-3-(2-methyl-2H-tetrazol-5-yl)phenyl)amino)-2-methyl-3-oxo-2,3-dihydro-1H-pyrazolo[3,4-b]pyridin-6-yl)amino)picolinamide]
1 to 10	COc1cc(CO)ccc1Nc1cc(Nc2cccc(C(F)(F)F)n2)nc2[nH]n(C)c(=O)c12 [Compound I-72, 4-((4-(hydroxymethyl)-2-methoxyphenyl)amino)-2-methyl-6-((6-(trifluoromethyl)pyridin-2-yl)amino)-1,2-dihydro-3H-pyrazolo[3,4-b]pyridin-3-one]
1 to 10	COc1c(F)cccc1Nc1cc(Nc2cc(C)c(F)cn2)nc2[nH]n(C)c(=O)c12 [Compound I-73, 4-((3-fluoro-2-methoxyphenyl)amino)-6-((5-fluoro-4-methylpyridin-2-yl)amino)-2-methyl-1,2-dihydro-3H-pyrazolo[3,4-b]pyridin-3-one]
0.1 to 0.5	COc1c(F)cccc1Nc1cc(Nc2cc(C)nc(C)n2)nc2[nH]n(C)c(=O)c12 [Compound I-74, 6-((2,6-dimethylpyrimidin-4-yl)amino)-4-((3-fluoro-2-methoxyphenyl)amino)-2-methyl-1,2-dihydro-3H-pyrazolo[3,4-b]pyridin-3-one]
0.1 to 0.5	COc1c(F)cccc1Nc1cc(Nc2ccc(C)nn2)nc2[nH]n(C)c(=O)c12 [Compound I-75, 4-((3-fluoro-2-methoxyphenyl)amino)-2-methyl-6-((6-methylpyridazin-3-yl)amino)-1,2-dihydro-3H-pyrazolo[3,4-b]pyridin-3-one]
1 to 10	COCc1ccnc(Nc2cc(Nc3cccc(F)c3OC)c3c(=O)n(C)[nH]c3n2)c1 [Compound I-76, 4-((3-fluoro-2-methoxyphenyl)amino)-6-((4-(methoxymethyl)pyridine-2-yl)amino)-2-methyl-1,2-dihydro-3H-pyrazolo[3,4-b]pyridin-3-one]
1 to 10	COc1c(F)cccc1Nc1cc(Nc2ccc(N3CCCCC3)cn2)nc2[nH]n(C)c(=O)c12 [Compound I-77, 4-((3-fluoro-2-methoxyphenyl)amino)-2-methyl-6-((5-(piperidin-1-yl)pyridin-2-yl)amino)-1,2-dihydro-3H-pyrazolo[3,4-b]pyridin-3-one]
1 to 10	COc1c(F)cccc1Nc1cc(Nc2ccn(C)n2)nc2[nH]n(C)c(=O)c12 [Compound I-78, 4-((3-fluoro-2-methoxyphenyl)amino)-2-methyl-6-((1-methyl-1H-pyrazol-3-yl)amino)-1,2-dihydro-3H-pyrazolo[3,4-b]pyridin-3-one]
1 to 10	COc1c(F)cccc1Nc1cc(Nc2ccc(C#N)cn2)nc2[nH]n(C)c(=O)c12 [Compound I-79, 6-((4-((3-fluoro-2-methoxyphenyl)amino)-2-methyl-3-oxo-2,3-dihydro-1H-pyrazolo[3,4-b]pyridin-6-yl)amino)nicotinonitrile]
1 to 10	COc1c(F)cccc1Nc1cc(Nc2ccccn2)nc2[nH]n(C)c(=O)c12 [Compound I-80, 4-((3-fluoro-2-methoxyphenyl)amino)-2-methyl-6-(pyridin-2-ylamino)-1,2-dihydro-3H-pyrazolo[3,4-b]pyridin-3-one]
0.1 to 0.5	COc1c(F)cccc1Nc1cc(Nc2cccc(C#N)n2)nc2[nH]n(C)c(=O)c12 [Compound I-81, 6-((4-((3-fluoro-2-methoxyphenyl)amino)-2-methyl-3-oxo-2,3-dihydro-1H-pyrazolo[3,4-b]pyridin-6-yl)amino)picolinonitrile]
1 to 10	COc1c(F)cccc1Nc1cc(Nc2cc(C)ccn2)nc2[nH]n(C)c(=O)c12 [Compound I-83, 4-((3-fluoro-2-methoxyphenyl)amino)-2-methyl-6-((4-methylpyridin-2-yl)amino)-1,2-dihydro-3H-pyrazolo[3,4-b]pyridin-3-one]
1 to 10	COc1c(F)cccc1Nc1cc(Nc2ccc(C)cn2)nc2[nH]n(C)c(=O)c12 [Compound I-84, 4-((3-fluoro-2-methoxyphenyl)amino)-2-methyl-6-((5-methylpyridin-2-yl)amino)-1,2-dihydro-3H-pyrazolo[3,4-b]pyridin-3-one]
0.5 to 1	COc1c(F)cccc1Nc1cc(Nc2cncc(C#N)n2)nc2[nH]n(C)c(=O)c12 [Compound I-85, 6-((4-((3-fluoro-2-methoxyphenyl)amino)-2-methyl-3-oxo-2,3-dihydro-1H-pyrazolo[3,4-b]pyridin-6-yl)amino)pyrazine-2-carbonitrile]
1 to 10	COc1c(F)cccc1Nc1cc(Nc2cccc(C(F)(F)F)n2)nc2[nH]n(C)c(=O)c12 [Compound I-86, 4-((3-fluoro-2-methoxyphenyl)amino)-2-methyl-6-((6-(trifluoromethyl)pyridin-2-yl)amino)-1,2-dihydro-3H-pyrazolo[3,4-b]pyridin-3-one]
